Laboratory results: patent US9943599B2, “Therapeutic applications of calcium electroporation to effectively induce tumor necrosis” (Herlev Hospital, priority 2011, dated 2018)

Columns and labels:
DC-3F cells = experiment: Calcium electroporation with two calcium sources, MTT assay; format: cell-based, Chinese hamster; conditions: 1 mM, 8 pulses, 0-1.6 kV/cm; MTT 1 day after treatment
Method: DC-3F cells were electroporated as described in example 1 with 1 mM calcium chloride (prepared by SAD, Denmark) or 1 mM calcium glubionate (Sandoz, Holzkirchen, Germany). The calcium concentration was chosen based on the experiment described in example 1 where 1 mM calcium is the lowest concentration inducing high cell death. The cells were electroporated with 8 pulses of […] at 1 Hz and increasing electric field (0-1.6 kV/cm). After 20 min at 37° C. and 5% CO2 cells were diluted in RPMI 1640 culture medium with 10% fetal calf serum and penicillin-streptomycin and seeded in 96-well plates at a concentration of 3.1×10^4 cells/100 μl.

[1] = tested on: DC-3F, K-562 and Lewis Lung Carcinoma cells; experiment: In vitro electroporation, MTT viability assay; format: cell-based, Chinese hamster, human, murine; conditions: electroporated; data not shown
Method: Three cell lines are used for in vitro experiments, DC-3F, a transformed Chinese hamster lung fibroblast cell line; K-562, a human leukemia cell line; and Lewis Lung Carcinoma, a murine lung carcinoma cell line. DC-3F cells were tested for mycoplasma in January 2011, K-562 cells were tested for mycoplasma in 2008 prior to freezing and thawing just before experiments were performed, and Lewis Lung cells were tested by rapid MAP27 panel (Taconic, Hudson N.Y.) in July 2011 without signs of infection. Cells are maintained in RPMI 1640 culture medium (GIBCO™, Life Technologies, Carlsbad, Calif.) with 10% fetal calf serum (GIBCO™, Life Technologies, Carlsbad, Calif.), penicillin and streptomycin at 37° C. and 5% C02. After harvesting, cells are washed and diluted in HEPES buffer containing 10 mM HEPES (Lonza, Basel, Switzerland), 250 mM sucrose and 1 mM MgCl2 in sterile water. 270 μl cell suspension (6.1×10^6 cells/ml) and 30 μl CaCl2, or in the case of controls, HEPES buffer, are electroporated in 4 mm wide cuvettes with aluminium electrodes (Molecular BioProducts, Inc., San Diego, Calif.). Cooled cells (8° C.) are exposed to 8 pulses of 1.2 kV/cm with pulse duration of 99 μs (DC-3F and K562 cells) or 8 pulses of 1.4 kV/cm with pulse duration of 99 μs (Lewis Lung Carcinoma) using a BTX® T820 square wave electroporator (BTX®, Harvard Apparatus, Holliston, Mass.). The electroporation parameters are chosen after optimization to obtain high permabilisation and cell survival. After 20 min at 37° C. and 5% CO2 cells are diluted in RPMI 1640 culture medium with 10% fetal calf serum and penicillin-streptomycin and seeded in 96-well plates at a concentration of 3.1×10^4 cells/100 μl.
Difference between electroporated and non-electroporated cells in identical buffer is assessed using two-way analysis of variance (ANOVA) with post least-squares-means test with Bonferroni correction for multiple comparisons.

| Molecule | effect of calcium electroporation on cell viability, calcium chloride versus calcium glubionate (DC-3F cells) | concentration giving a decrease in viability similar to calcium electroporation [1] [µM] |
| --- | --- | --- |
| O.O=C([O-])[C@H](O)[C@@H](O)[C@H](O)[C@H](O)CO.O=C([O-])[C@H](O)[C@@H](O)[C@H](O[C@@H]1O[C@H](CO)[C@H](O)[C@H](O)[C@H]1O)[C@H](O)CO.[Ca+2] [calcium glubionate] | no difference |  |
| bleomycin |  | ≥ 0.1 |
